Results as given in patent US20210292333A1, “CONDENSED AZAHETEROARYL COMPOUNDS HAVING ANTIBACTERIAL ACTIVITY AGAINST TU[…]” (CADILA HEALTHCARE LIMITED, priority 2018, published 2021).
≈ marks a conversion by molar mass, not a printed value.

How the values were obtained:
[1] = tested on: Mycobacterium tuberculosis H37Rv; test: Minimum Inhibitory Concentration (MIC) determination, MABA assay; assay type: cell-based; conditions: 168 h, 7H9 medium, 7 days at 37° C., alamar blue, read-out: Mtb MIC
Protocol: To assess the bacterial growth inhibitory effect of the compounds of the invention, MABA assay was performed with log phase culture of Mycobacterium tuberculosis H37Rv. Bacterial culture of optical density 0.6-0.8 was diluted to final density of 0.02 in 7H9 medium. 100 μl of diluted Mycobacterium tuberculosis H37Rv was incubated with the test compounds in microtiter plate. A drug free control containing DMSO also was also prepared. Following incubation of the compound with culture for 7 days at 37° C., 20 μl of 0.02% alamar blue (freshly prepared) was added in each well. The color was allowed to develop for 16 h at 37° C. Blue color in the well indicated no growth whereas pink color signifies growth in the well. MIC value is defined as the lowest concentration that prevents the color change from blue to pink. Fluorescence was measured at excitation at 530 nm and emission at 590 nm.

[2] = Pharmacokinetics of the compounds in mice (IV and oral single dose); assay type: in vivo; conditions: mouse, plasma, Balb/c mice; for bioavailability: PO 3 mg/kg vs IV 1 mg/kg, read-out: F(%) absolute oral bioavailability; for AUC(0-t) / Cmax: single dose, Oral (PO) 3 mg/kg suspension, IV 1 mg/kg, route not given
Protocol: Balb/c mice were obtained from Zydus Research Centre, Ahmedabad India, AAALAC Accreditation. All animals were housed in temperature-control rooms with appropriate light/dark cycles. The animals were overnight fasted before oral gavage dosing but were given access to water ad libitum. Food was provided 4 h after dosing. All animal studies were conducted according to protocols reviewed and approved by the Institutional Animal Care and Ethics Committee at the Zydus Research Centre. Compounds were dosed as a solution in 10% NMP and 10% solutol in Normal Saline (Intravenous (IV), 1 mg/kg) and homogenous suspension (Oral (PO), 3 mg/kg) in 0.5% Tween 80 in 0.5% methyl cellulose as a single dose in mice. For mouse composite PK profile was generated. Blood samples were collected at 0.08 (IV only), 0.25, 0.5, 1, 2, 4, 6, 7.5, and 24 h post-dose in Na-heparin coated micro centrifuge tubes. Blood samples were centrifuged to separate plasma which were then stored at −70° C. until analysis. PK parameters were calculated by non-compartmental analysis using Phoenix (Pharsight Corp., Mountain View, Calif.). A model was selected based on the vascular (IV bolus) or extravascular (PO) routes of administration. For the PO route, concentration at time zero was assumed to be zero. Plasma concentrations below the limit of quantitation were treated as zero concentration for the purpose of calculating the mean plasma concentration values. Pharmacokinetic parameters such as maximum plasma concentration (Cmax), area under the curve of concentration over the time (AUC (0-t)) and absolute oral bioavailability (F (%)) of the selected compounds are shown in Table 3.

Compound: CCOc1ncnc(Cn2nc(C(=O)NCC3(O)CC3)c3ncc(C)cc32)c1C [Example 3, 1-((6-ethoxy-5-methylpyrimidin-4-yl)methyl)-N-((1-hydroxycyclopropyl)methyl)-6-methyl-1H-pyrazolo[4,3-b]pyridine-3-carboxamide]
- MIC [1]: ≤ 0.625 µM
- bioavailability [2]: 100%
- AUC(0-t) [2]: 2810 ng·h/mL
- Cmax [2]: 2720 ng/mL

Compound: COCCNC(=O)c1nn(Cc2ncnc(OC)c2C)c2cc(C)cnc12 [Example 10, 1-((6-methoxy-5-methylpyrimidin-4-yl)methyl)-N-(2-methoxyethyl)-6-methyl-1H-pyrazolo[4,3-b]pyridine-3-carboxamide]
- MIC [1]: 5 µM (≈ 1.85 µg/mL)
- bioavailability [2]: 100%
- AUC(0-t) [2]: 5130 ng·h/mL
- Cmax [2]: 4000 ng/mL

Compound: COc1ncnc(Cn2cc(C(=O)NCC3(O)CC3)c3ncc(C)nc32)c1C [Example 11, N-((1-hydroxycyclopropyl)methyl)-5-((6-methoxy-5-methylpyrimidin-4-yl)methyl)-3-methyl-5H-pyrrolo[2,3-b]pyrazine-7-carboxamide]
- MIC [1]: 0.5 µM (≈ 0.191 µg/mL)
- bioavailability [2]: 100%
- AUC(0-t) [2]: 2570 ng·h/mL
- Cmax [2]: 1660 ng/mL

Compound: COc1ncnc(Cn2cc(C(=O)NCC3(O)CC3)c3ncc(C)cc32)c1C [Example 85, N-((1-hydroxycyclopropyl)methyl)-1-((6-methoxy-5-methylpyrimidin-4-yl)methyl)-6-methyl-1H-pyrrolo[3,2-b]pyridine-3-carboxamide]
- MIC [1]: ≤ 0.0625 µM
- bioavailability [2]: 94%
- AUC(0-t) [2]: 2180 ng·h/mL
- Cmax [2]: 1470 ng/mL

Compound: CCOc1ncnc(Cn2cc(C(=O)NCC3(O)CC3)c3ncc(C)nc32)c1C [Example 13, 5-((6-ethoxy-5-methylpyrimidin-4-yl)methyl)-N-((1-hydroxycyclopropyl)methyl)-3-methyl-5H-pyrrolo[2,3-b]pyrazine-7-carboxamide]
- MIC [1]: 0.25 µM (≈ 0.0991 µg/mL)
- bioavailability [2]: 100%
- AUC(0-t) [2]: 2150 ng·h/mL
- Cmax [2]: 1320 ng/mL

Compound: COc1ncnc(Cn2nc(C(=O)NCC3(O)CC3)c3ncc(C)nc32)c1C [Example 14, N-((1-hydroxycyclopropyl)methyl)-1-((6-methoxy-5-methylpyrimidin-4-yl)methyl)-6-methyl-1H-pyrazolo[3,4-b]pyrazine-3-carboxamide]
- bioavailability [2]: 90%
- AUC(0-t) [2]: 1680 ng·h/mL
- Cmax [2]: 1600 ng/mL

Compound: COc1ncnc(Cn2nc(C(=O)NCC3(O)CC3)c3ncc(C)cc32)c1C [Example 1, N-((1-hydroxycyclopropyl)methyl)-1-((6-methoxy-5-methylpyrimidin-4-yl)methyl)-6-methyl-1H-pyrazolo[4,3-b]pyridine-3-carboxamide]
- MIC [1]: 1.25 µM (≈ 0.478 µg/mL)
- bioavailability [2]: 100%
- AUC(0-t) [2]: 2850 ng·h/mL
- Cmax [2]: 1730 ng/mL

Compound: COc1cnc2c(C(=O)NCC3(O)CC3)cn(Cc3ncnc(OC)c3C)c2n1 [Example 12, N-((1-hydroxycyclopropyl)methyl)-3-methoxy-5-((6-methoxy-5-methylpyrimidin-4-yl)methyl)-5H-pyrrolo[2,3-b]pyrazine-7-carboxamide]
- MIC [1]: 0.25 µM (≈ 0.0996 µg/mL)
- bioavailability [2]: 100%
- AUC(0-t) [2]: 2920 ng·h/mL
- Cmax [2]: 1720 ng/mL

Compound: COc1nc(C)ccc1Cn1nc(C(=O)NCC2(O)CC2)c2ncc(C)cc21 [Example 9, N-((1-hydroxycyclopropyl)methyl)-1-((2-methoxy-6-methylpyridin-3-yl)methyl)-6-methyl-1H-pyrazolo[4,3-b]pyridine-3-carboxamide]
- bioavailability [2]: 78%
- AUC(0-t) [2]: 2160 ng·h/mL
- Cmax [2]: 1570 ng/mL
